Laboratory results: paper PMC6151456, “Screening a Natural Product-Based Library against Kinetoplastid Parasites” (Molecules : A Journal of Synthetic Chemistry and Natural …, 2017)
Structures can show the parent of a compound that is named as a salt. Where two headings read alike, the source gives them in different places.

What was measured:
[1] = tested on: T. b. brucei bloodstream form strain 427; assay: T. b. brucei resazurin viability assay; format: cell-based, Trypanosoma brucei brucei; settings: for IC50: Trypanosoma brucei, n = 2, 14 point dose response, top 20 µM, read-out: IC50 (mean ± SD), T. b. brucei
Method: (§1) For the primary screen, compounds were prepared as a stock concentration of 5 mM in 100% DMSO and tested in duplicate points for two independent experiments (n = 2) at final assay concentrations of 20 µM and 16.7 µM for the L. donovani intracellular amastigote and promastigote viability assays, respectively. Primary screening against T. b. brucei was undertaken at 5 µM and for T. cruzi at 10 µM final concentrations. […] These compounds were then retested in a 14 point format to determine the IC50 value against the parasite, and against HEK-293, THP-1 and 3T3 cells to determine the selectivity to the parasite. […] A top dose of 20 µM was used in the T. b. brucei assay and 18.3 µM for T.cruzi assay, in 14 point dose repsonse curves as described.
The efficacy of compounds against T. b. brucei bloodstream form was evaluated using a resazurin-based assay, previously described in the literature.

[2] = tested on: T. cruzi intracellular amastigotes; assay: T. cruzi intracellular amastigote image-based assay; format: cell-based, Trypanosoma cruzi; settings: for IC50: Trypanosoma cruzi, intracellular amastigotes, n = 2, top 18.3 µM, read-out: IC50 (mean ± SD), T. cruzi
Method: as §1
(§2) The efficacy of compounds against T. cruzi was undertaken using a phenotypic, high-throughput image-based assay as previously described.

HEK-293 cells = assay: HEK-293 resazurin viability assay (cytotoxicity, selectivity); format: cell-based, human
Method: (§3) Primary screening against T. b. brucei was undertaken at 5 µM and for T. cruzi at 10 µM final concentrations.
Cytotoxicity testing was undertaken as previously described.

3T3 host cells [3] = assay: 3T3 host cell cytotoxicity (selectivity); format: cell-based, mouse; settings: relative to T. cruzi
Method: as §3, §2

P. falciparum (3D7) = settings: read-out: IC50, chloroquine-sensitive (3D7) P. falciparum; cited from earlier work
P. falciparum (Dd2) = settings: read-out: IC50, multi-drug resistant (Dd2) P. falciparum; cited from earlier work
malaria infection = tested on: malaria infection; parameters: method as in PMID 25490858; settings: mouse, oral administration; cited from earlier work
[4] = tested on: L. donovani DD8 promastigotes; assay: L. donovani DD8 promastigote viability assay (resazurin); format: cell-based, Leishmania donovani; settings: Leishmania donovani; at 16.7 µM
Method: as §1
This assay was established to assess the activity of the compound library on the extracellular form of the parasites. An initial cell density of 1 × 10^5 parasites/mL was inoculated into a 75 cm^2 flask (in a total of 30 mL of M199 medium + 10% (v/v) HIFBS) and incubated at 27 °C. After 96 h the parasites reached the mid-log phase and were seeded in black, clear bottom 384-well plates (Greiner-bio-one®, Monroe, UT, USA) at a concentration of 5 × 10^5 parasites/mL in a volume of 55 µL using a Bravo automated liquid handling platform (Agilent, Santa Clara, CA, USA). Compound stocks were diluted 1:25 in M199 media without HIFBS using a dilution plate (Greiner-bio-one®, Monroe, UT, USA). The compounds were dispensed in 5 µL using a Bravo and parasites incubated for an additional 68 h at 27 °C. Resazurin (Cayman Chemicals®, Ann Arbor, MI, USA) at 0.142 mM final assay concentration was then dispensed into plates at a volume of 10 µL/well using a Multidrop™ 384 Reagent Dispenser (Thermo Scientific®, Newington, NH, USA) and incubated at 27 °C. The plates were read after 4 h on an EnVision™ Multilabel plate reader (PerkinElmer, Waltham, MA, USA) using fluorometry with an excitation of 530 nm and emission 590 nm. For the L. donovani DD8 promastigote viability assay, 1 µM of amphotericin B was used as positive control and 0.4% DMSO as negative control.

T. cruzi [5] = tested on: T. cruzi; parameters: method as in PMID 25033456; settings: cited from earlier work
3T3 host cells [6] = tested on: 3T3 host cells; parameters: method as in PMID 25033456; settings: relative to T. cruzi; cited from earlier work
T. b. brucei [7] = tested on: T. b. brucei; parameters: method as in PMID 20696141; settings: cited from earlier work
[8] = tested on: L. donovani DD8 intracellular amastigotes; assay: L. donovani DD8 intracellular amastigote high content imaging assay; format: cell-based, Leishmania donovani; settings: Leishmania donovani; n = 2; 14 point dose response, top 20 µM; read-out: IC50 (mean ± SD), L. donovani DD8 intracellular amastigotes
Method: as §1
A high content, high-throughput imaging assay was used to identify compounds active against L. donovani DD8 intracellular amastigotes as described previosuly.

THP-1 cells = assay: THP-1 cytotoxicity (selectivity); format: cell-based, human; settings: relative to L. donovani DD8 intracellular amastigotes
Method: as §1

[9] = tested on: L. donovani (MHOM/SD/62/1S-CL2D) axenic amastigotes; parameters: method as in PMID 15679330; settings: strain MHOM/SD/62/1S-CL2D; cited from earlier work
T. b. brucei variant 221 = settings: cited from earlier work
[10] = tested on: L. mexicana intracellular amastigotes; parameters: method as in PMID 15679330; settings: at 41.89 µM; cited from earlier work
T. b. brucei [11] = tested on: T. b. brucei; parameters: method as in PMID 18833031; settings: cited from earlier work
L. donovani = tested on: L. donovani; parameters: method as in PMID 28498323; settings: cited from earlier work
T. b. rhodesiense = tested on: T. b. rhodesiense; parameters: method as in PMID 28498323; settings: cited from earlier work
T. cruzi [12] = tested on: T. cruzi; parameters: method as in PMID 28498323; settings: cited from earlier work
[13] = tested on: NF54 strain of Plasmodium falciparum; parameters: method as in PMID 28498323; settings: read-out: IC50, P. falciparum NF54; cited from earlier work
L. donovani DD8 = tested on: L. donovani DD8; parameters: method as in PMID 7592170; settings: compared to other strains; cited from earlier work

Question: For `NCCc1c[nH]c2c1C(=O)C1=C(NC=CS1(=O)=O)C2=O` [Compound 3, Thiaplakortone A], which IC50 [1] is on record?
Answer: Its IC50 is 3.94 ± 0.78 µM.

Question: And the IC50 [2]?
Answer: The IC50 was 4.26 ± 0.65 µM.

Question: What about the “Selectivity index (SI) compared to HEK-293 cells” value (HEK-293 cells; relative to T. b. brucei) of the same molecule?
Answer: Its value is 0.70.

Question: What about the “Selectivity index (SI) compared to HEK-293 cells” value (HEK-293 cells; relative to T. cruzi) of the same molecule?
Answer: Its value is 0.53.

Question: And the “Selectivity index (SI) compared to 3T3 cells” value (3T3 host cells [3])?
Answer: The value was 1.06.

Question: And the IC50 (P. falciparum (3D7))?
Answer: The IC50 was 0.051 µM.

Question: What about the IC50 (P. falciparum (Dd2)) of the same molecule?
Answer: The IC50 was 0.0066 µM.

Question: And the suppression of parasitemia (malaria infection)?
Answer: Its suppression of parasitemia is “did not suppress parasitemia”.

Question: With `OC(c1cc(C(F)(F)F)nc2c(C(F)(F)F)cccc12)C1CCCCN1` (stereo not drawn) [Compound 8, Mefloquine HCl, reference compound] as the molecule, how does the inhibition at 16.7 µM [4] read?
Answer: Its inhibition at 16.7 µM is 100%.

Question: What about the IC50 [1] of the same molecule?
Answer: Its IC50 is 0.62 ± 0.06 µM.

Question: And the IC50 [2]?
Answer: The IC50 was 3.96 ± 0.58 µM.

Question: What about the “Selectivity index (SI) compared to HEK-293 cells” value (HEK-293 cells; relative to T. b. brucei) of the same molecule?
Answer: Its value is 7.97.

Question: And the “Selectivity index (SI) compared to HEK-293 cells” value (HEK-293 cells; relative to T. cruzi)?
Answer: The value was over 5.06.

Question: And the “Selectivity index (SI) compared to 3T3 cells” value (3T3 host cells [3])?
Answer: Its value is over 1.70.

Question: And the EC50 (T. cruzi [5])?
Answer: The EC50 was 6.1 µM.

Question: And the “SI to 3T3 host cells” value (3T3 host cells [6])?
Answer: Its value is 2.

Question: Which inhibition at 16.7 µM [4] does the source give for `CC[C@H]1CN2CCc3cc(OC)c(OC)cc3[C@@H]2C[C@@H]1C[C@H]1NCCc2cc(OC)c(OC)cc21` [Compound 10, Emetine dihydrochloride, reference compound] here?
Answer: The inhibition at 16.7 µM was 100%.

Question: What about the IC50 (T. b. brucei [7]) of the same molecule?
Answer: The IC50 was 7.9 µM.

Question: For `COc1c(C)c(O)c(C(=O)/C=C/c2ccccc2)c(O)c1C` [Compound 13, (E)-1-(2,6-dihydroxy-4-methoxy-3,5-dimethylphenyl)-3-phenylprop-2-en-1-one], which inhibition at 16.7 µM [4] is on record?
Answer: The inhibition at 16.7 µM was 100%.

Question: And the IC50 [8]?
Answer: Its IC50 is 5.65 ± 0.26 µM.

Question: What about the “activity against T. b. brucei” value [1] of the same molecule?
Answer: The value was “no significant activity”.

Question: And the “activity against T. cruzi” value [2]?
Answer: The value was “no significant activity”.

Question: And the “Selectivity index (SI) compared to HEK-293 cells” value (HEK-293 cells; relative to L. donovani DD8 intracellular amastigotes)?
Answer: The value was ~ 12.

Question: What about the “Selectivity index (SI) compared to HEK-293 cells” value (HEK-293 cells; relative to L. donovani DD8 intracellular amastigotes, listed as Chalcone analogue (13)) of the same molecule?
Answer: Its value is 11.87.

Question: What about the “Selectivity index (SI) compared to THP-1 cells” value (THP-1 cells) of the same molecule?
Answer: Its value is 3.59.

Question: What about the IC50 [9] of the same molecule?
Answer: Its IC50 is 16.8 ± 4.35 µM.

Question: And the IC50 (T. b. brucei variant 221)?
Answer: The IC50 was 21.1 ± 3.68 µM.

Question: And the “reduction in infection of L. mexicana intracellular amastigotes” value [10]?
Answer: Its value is 96 ± 2%.

Question: Which IC50 [1] does the source give for `COc1ccc2c(c[n+](C)c3c4cc5c(cc4ccc23)OCO5)c1OC` [Compound 15, Chelerythrine chloride, reference compound] here?
Answer: Its IC50 is 0.23 ± 0.04 µM.

Question: What about the “Selectivity index (SI) compared to HEK-293 cells” value (HEK-293 cells; relative to T. b. brucei, listed as Chelerythrine chloride (15)) of the same molecule?
Answer: The value was over 18.71.

Question: What about the IC50 (T. b. brucei [11]) of the same molecule?
Answer: Its IC50 is 1.3 µM.

Question: Which results are given for `CCCCCCC/C=C/C=C/C(=O)NCCc1ccc(O)cc1` [dodeca-2E,4E-dienoic acid 4-hydroxy-2-phenyl-ethylamide]?
Answer: IC50 (L. donovani): 4.19 ± 1.64 µM; IC50 (T. b. rhodesiense): 2.26 ± 0.18 µM; IC50 (T. cruzi [12]): 1.88 µM; IC50 [13]: 3.18 ± 0.2 µM

Question: Which “activity against L. donovani DD8” value (L. donovani DD8) does the source give for parmomycin here?
Answer: Its value is “negligible activity”.
